Like-named read-outs stand apart in the source and are kept apart here.
What was measured:
human plasma BChE = target: T1, human plasma BChE (Homo sapiens, UniProt P06276); test: biochemical; assay type: biochemical
T1 construct: was used as a source of BChE and was prepared from heparinized human blood; from tissue; host or cells: human plasma from heparinized human blood

Cytotoxicity, MTT assay = assay type: cell-based; details: human, SH-SY5Y neuroblastoma cells, 24 h incubation
Method: The cytotoxicity profile was assessed for compound 6 using the human neuroblastoma SH-SY5Y cell line and MTT assay. At a concentration of 10 µM, compound 6 was completely devoid of cytotoxicity, with viability reaching 95.1 ± 2.6%.
The neuroblastoma cell line SH-SY5Y (Sigma-Aldrich, St. Louis, MO, USA) was used to evaluate cytotoxicity of the tested compounds. […]
The MTT (3-(4,5-dimethylthiazol-2-yl)-2,5-diphenyl-tetraziolium bromide (Sigma–Aldrich) reduction assay was used for measurement of the compounds’ cytotoxicity, according to Mosmann. MTT is a water-soluble tetrazolium salt that is converted to purple formazan by succinate dehydrogenase in mitochondria of viable cells. Cell viability was detected after 24-h incubation with the tested substances. For the assay, SH-SY5Y cells were seeded into 96-well plates in 100 µL volume and at a density of 20 × 10^3. Cells were allowed to attach overnight before the treatment. The stock solutions of tested compounds were prepared in dimethylsulfoxide (DMSO, Sigma-Aldrich), which were serially diluted in DMEM and added to the cells in a 96-well culture plate. […] The optical density of each well was measured using a Spark® multimode microplate reader (Tecan Group Ltd., Männedorf, Switzerland) at 570 nm. The cell viability was expressed as a percentage of the untreated control. […]

human recombinant AChE = human recombinant AChE (Homo sapiens, UniProt P22303); test: biochemical; assay type: biochemical
MAO-A = target: T2, MAO-A (Homo sapiens, UniProt P21397); test: MAO-A inhibition assay; assay type: biochemical
T2 construct: purchased Merck, Germany
T2 sequence (P21397 1-527): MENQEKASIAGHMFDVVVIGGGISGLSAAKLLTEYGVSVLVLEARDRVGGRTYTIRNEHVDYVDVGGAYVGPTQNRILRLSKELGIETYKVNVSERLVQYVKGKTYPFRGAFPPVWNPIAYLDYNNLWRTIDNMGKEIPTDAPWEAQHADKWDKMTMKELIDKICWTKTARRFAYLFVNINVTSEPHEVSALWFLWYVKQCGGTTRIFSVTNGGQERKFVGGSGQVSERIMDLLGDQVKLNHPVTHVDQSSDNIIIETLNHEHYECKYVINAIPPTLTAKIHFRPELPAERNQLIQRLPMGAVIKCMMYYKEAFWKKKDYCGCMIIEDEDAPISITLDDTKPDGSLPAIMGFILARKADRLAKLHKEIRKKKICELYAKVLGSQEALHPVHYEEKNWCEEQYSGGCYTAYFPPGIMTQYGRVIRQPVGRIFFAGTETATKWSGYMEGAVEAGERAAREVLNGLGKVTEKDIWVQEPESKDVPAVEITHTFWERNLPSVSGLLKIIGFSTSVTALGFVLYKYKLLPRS
Method: Since monoamine oxidase (MAO; EC 1.4.3.4) inhibitors are considered as neuroprotective agents, compound 6 was screened at two concentrations (1 and 10 µM) for its inhibition potential against both isoforms of human MAOs. […]; MAO inhibition assay was performed as previously described. Supplementary Materials provides details of this assay. […]
The reaction mixture contains 2.5mg/mL MAO -A or 6.25mg/mLMAO-B enzyme (Merck, Germany) and inhibitor in final concentrations of […] in 50 mM potassiumphosphate buffer with 20% (v/v) glycerol (pH 7.5). […] The sample was then centrifuged (16.500 g) for10 min.The deamination product of kynuramine formed during the enzymatic reaction 4-hydroxyquinoline (4-HQ) was determined by UHPLC-MS on a Zorbax RRHD Eclipse plus C18 column (2.1 mm x 50 mm, […]) (Agilent Technologies, USA), by using a 6470 Series Triple Quadrupole mass spectrometer (Agilent Technologies, USA) as detector with electrospray ionisation – positive ion mode. […]
0.1% formic acid in water; (B) 0.1% formic acid in acetonitrile. IC 50of individual compounds were determined by nonlinear regression usingGraphPad Prism 8.0 (GraphPad Software, USA).

T1 sequence (P06276 29-602): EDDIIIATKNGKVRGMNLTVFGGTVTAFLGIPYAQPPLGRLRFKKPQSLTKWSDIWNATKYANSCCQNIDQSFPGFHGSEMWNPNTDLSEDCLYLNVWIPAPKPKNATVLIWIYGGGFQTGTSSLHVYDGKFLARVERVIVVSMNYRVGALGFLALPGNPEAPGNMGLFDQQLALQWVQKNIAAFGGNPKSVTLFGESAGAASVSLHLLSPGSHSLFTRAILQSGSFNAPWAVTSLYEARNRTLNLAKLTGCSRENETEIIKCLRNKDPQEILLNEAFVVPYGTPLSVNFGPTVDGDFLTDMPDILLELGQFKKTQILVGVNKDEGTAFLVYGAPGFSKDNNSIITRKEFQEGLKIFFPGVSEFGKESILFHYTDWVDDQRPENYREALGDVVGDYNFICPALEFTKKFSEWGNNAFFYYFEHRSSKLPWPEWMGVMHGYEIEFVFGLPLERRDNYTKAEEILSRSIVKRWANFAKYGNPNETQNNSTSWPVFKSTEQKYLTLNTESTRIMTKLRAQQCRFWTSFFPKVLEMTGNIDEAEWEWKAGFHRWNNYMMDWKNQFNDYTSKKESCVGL
Sequence of human recombinant AChE (P22303 32-614): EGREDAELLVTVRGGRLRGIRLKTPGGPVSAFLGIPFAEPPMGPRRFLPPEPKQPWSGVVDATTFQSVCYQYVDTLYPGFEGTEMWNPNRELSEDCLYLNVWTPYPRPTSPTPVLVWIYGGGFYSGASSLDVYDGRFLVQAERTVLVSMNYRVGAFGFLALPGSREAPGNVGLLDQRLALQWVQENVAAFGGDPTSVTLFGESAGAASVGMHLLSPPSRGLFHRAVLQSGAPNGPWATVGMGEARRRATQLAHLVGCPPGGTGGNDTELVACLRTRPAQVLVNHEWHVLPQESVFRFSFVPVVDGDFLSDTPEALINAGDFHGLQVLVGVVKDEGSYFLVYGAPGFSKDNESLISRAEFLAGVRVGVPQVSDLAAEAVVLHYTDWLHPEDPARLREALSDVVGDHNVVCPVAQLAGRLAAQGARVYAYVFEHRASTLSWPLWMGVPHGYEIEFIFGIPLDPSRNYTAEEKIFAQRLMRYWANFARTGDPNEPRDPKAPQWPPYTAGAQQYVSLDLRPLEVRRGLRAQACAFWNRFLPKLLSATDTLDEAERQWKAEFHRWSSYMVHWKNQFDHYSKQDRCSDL

## C=CCOc1ccc(CCN(CC=C)Cc2ccc(OC)c(OCc3ccccc3)c2)cc1 [Compound 6, N-allyl-N-(3-benzyloxy-4-methoxybenzyl)-2-(4-allyloxyphenyl)ethan-1-amine]
Human plasma BChE; mean ± SEM of three independent measurements, each in triplicate, read-out: IC50, hBuChE ± SEM
  IC50: 70 ± 10 nM
Human plasma BChE; read-out: IC50, hBuChE
  IC50: 72 nM
Human plasma BChE; tested at 100 µM compound concentration, read-out: % Inhibition hBuChE ± SEM
  inhibition at 100 µM: 98.6 ± 0.9%
Cytotoxicity, MTT assay
  viability at 24 h, 10 µM: 95.1 ± 2.6%
Human recombinant AChE; mean ± SEM of three independent measurements, each in triplicate, read-out: IC50, hAChE ± SEM
  IC50: > 100000 nM
Human recombinant AChE; tested at 100 µM compound concentration, read-out: %Inhibition hAChE ± SEM
  inhibition at 100 µM: 10.1 ± 0.6%
MAO-A
  IC50: > 10000 nM
MAO-A; 1 and 10 µM
  residual activity of MAO-A: higher than 68%

Source: article PMC8348983 (International Journal of Molecular Sciences, 2021)
